# Laboratory results: patent publication US10028507B2, “Sixteen-membered macrolide compound and applications thereof” (Zhejiang Hisun Pharmaceutical Co., Ltd., priority 2014, dated 2018)
# Like-named read-outs stand apart in the source and are kept apart here.
# Assays:
# Tetranychus cinnabarinus = test: Laboratory activity assay on Tetranychus cinnabarinus, leaf disc dipping method; format: in vivo; settings: foliar
# Procedure: (1) Laboratory activity assay of tenvermectin on Tetranychus cinnabarinus: the laboratory activity of tenvermectin was tested using Tetranychus cinnabarinus as the test pest, and using avermectin as the positive control. The activities were compared between tenvermectin and avermectin.
# Test organism: Tetranychus cinnabarinus: it was inoculated to horsebean seedling and cultured under the conditions of artificial climate [(26±1)° C., RH (70±5)%, H/D14].
# Test reagents: 96% (w/w) avermectin, 98% (w/w) tenvermectin (TEVA:TEVB=8:2): 1 g 96% avermectin and 98% tenvermectin were weighed and added to a beaker respectively, into which 93 g methanol and 6 g surfactant nonylphenol polyoxyethylene ether were added to give a preparation at a concentration of 10000 mg/L. The preparation was diluted with water into a series of concentrations: 0.005, 0.01, 0.025, and 0.05 mg/L for test.
# Experiment method: leaf disc dipping method was employed: adult mites that were raised in laboratory with consistent physiological state were selected. The horsebean leaves with consistent growth condition were selected. 2 cm leaf-discs were prepared using a puncher. The leaf-disc was placed on absorbent cotton in the center of a plastic dish with the back of blade upwards. […] The number of adult mites was counted under a stereomicroscope 2 h later, and the number should not be less than 20 on each leaf disc in the dish. […]
# [1] = tested on: Bursaphelenchus xylophilus; test: whole plant or invertebrate
# Procedure: Bursaphelenchus xylophilus is the pathogen of pine wilt disease, which results in the death of a great number of pines in the south of China. The laboratory activities of sixteen-membered macrolide compounds, including tenvermectin, avermectin, ivermectin, milbemycin, and emamectin benzoate etc, were tested using Bursaphelenchus xylophilus as the test pest, in order to compare the difference of activities among these reagents on Bursaphelenchus xylophilus.
# Test reagents: 5 reagents, including 0.5% avermectin emulsifiable concentrate, 0.5% tenvermectin emulsifiable concentrate, 0.5% ivermectin emulsifiable concentrate, 2% milbemycin emulsifiable concentrate, and 2.5% emamectin benzoate microemulsion.
# Experiment method: Dipping method was employed. For each reagent, 5 concentrations were tested, including 2, 5, 10, 20, and 50 mg/L. For each concentration, there were 3 repeats. The results were statistically analyzed at 24 h.
# citrus spider mite = test: Prevention and control effect on citrus spider mite in field; format: in vivo, Panonychus citri McGregor; design: Amount of mites: unit not given here
# Procedure: Citrus spider mite (i.e., Panonychus citri McGregor) is one of the primary insect pests for citrus. It has properties, such as small body, fast propagation and multiple generations, which will cause severe damage to citrus. Tenvermectin was prepared as 2% water dispersible granules for the test of prevention and control of citrus spider mite, so as to determine its effect in field.
# Test reagents: 2% tenvermectin water dispersible granules (tenvermectin, ethanol and alkylphenol polyoxyethylene ether-formaldehyde condensate in a mass ratio of […]), and 2% avermectin emulsifiable concentrate
# Experiment time: in early May, at the young fruit stage of citrus.
# Experiment design: the reagents were diluted 2000-, 4000- and 8000-fold, to concentrations of 10 mg/L, 5 mg/L and 2.5 mg/L, respectively. For each concentration, there were 3 repeats. 10 citrus trees were comprised in one small area that was randomly arranged. Water was used as the control, in which 10 citrus trees were tested. 50 kg of reagent was sprayed for each concentration. The reagent was administrated on a sunny day with no rain in following 24 h.
# Data analysis: in each small area, 5 trees were examined. For each tree, 2 branches, each located in the east, the south, the west, the north and the center of the tree, were investigated. For each branch, the amount of live mites was counted for total 5 leaves. The amount of live mites was counted before administration and on day 3, 5, 7 and 14 after administration respectively, to calculate the reduction rate of the mite population. The prevention and control effect in field was determined based on the result.
# [2] = tested on: Bursaphelenchus xylophilus; test: Activity of tenvermectin A/B of different ratios on Bursaphelenchus xylophilus; format: in vivo; settings: for LC50: in vivo
# Procedure: The activity of the mixture of tenvermectin A and tenvermectin B with different ratios was tested using Bursaphelenchus xylophilus as the test pest, in order to provide reference for modification and fermentation process of tenvermectin-producing bacteria.
# [3] = Bursaphelenchus xylophilus, 24 h, read-out: Mortality at different concentrations
# [4] = 2.5 mg/L, 3 d after administration, field spray
# [5] = 2.5 mg/L, 5 d after administration
# [6] = 2.5 mg/L, 7 d after administration
# [7] = 2.5 mg/L, 14 d after administration
# [8] = 5.0 mg/L, 3 d after administration
# [9] = 5.0 mg/L, 5 d after administration
# [10] = 5.0 mg/L, 7 d after administration
# [11] = 5.0 mg/L, 14 d after administration
# [12] = 10.0 mg/L, 3 d after administration
# [13] = 10.0 mg/L, 5 d after administration
# [14] = 10.0 mg/L, 7 d after administration
# [15] = 10.0 mg/L, 14 d after administration
# [16] = 2 mg/L, 24 h, dipping, reagents applied as emulsifiable concentrate/microemulsion
compound,measurement,setting,value
CC[C@H](C)[C@H]1O[C@]2(C=C[C@@H]1C)C[C@@H]1C[C@@H](C/C=C(\C)[C@@H](O[C@H]3C[C@H](OC)[C@@H](O[C@H]4C[C@H](OC)[C@@H](O)[C@H](C)O4)[C@H](C)O3)[C@@H](C)/C=C/C=C3\CO[C@@H]4[C@H](O)C(C)=C[C@@H](C(=O)O1)[C@]34O)O2 [avermectin],LC50,Tetranychus cinnabarinus; 24 h,0.0083 µg/mL
same,LC50,Tetranychus cinnabarinus; read-out: LC50 on Tetranychus cinnabarinus,0.0083 µg/mL
same,LC50,"[1]; Bursaphelenchus xylophilus, 24 h",5.35 µg/mL
same,mortality at 2 µg/mL,[1]; [3],43.2%
same,mortality at 5 µg/mL,[1]; [3],46.1%
same,mortality at 10 µg/mL,[1]; [3],63.1%
same,mortality at 20 µg/mL,[1]; [3],66.9%
same,mortality at 50 µg/mL,[1]; [3],78%
same,Amount of mites,citrus spider mite; [4],2.0
same,Effect,citrus spider mite; [4],80.5c
same,Amount of mites,citrus spider mite; [5],1.5
same,Effect,citrus spider mite; [5],86.7b
same,Amount of mites,citrus spider mite; [6],1.8
same,Effect,citrus spider mite; [6],87.3c
same,Amount of mites,citrus spider mite; [7],1.9
same,Effect,citrus spider mite; [7],80.1b
same,Amount of mites,citrus spider mite; [8],0.4
same,Effect,citrus spider mite; [8],91.2ab
same,Amount of mites,citrus spider mite; [9],1.0
same,Effect,citrus spider mite; [9],87.3b
same,Amount of mites,citrus spider mite; [10],1.3
same,Effect,citrus spider mite; [10],88.1c
same,Amount of mites,citrus spider mite; [11],1.4
same,Effect,citrus spider mite; [11],80.4b
same,Amount of mites,citrus spider mite; [12],1.4
same,Effect,citrus spider mite; [12],81.6c
same,Amount of mites,citrus spider mite; [13],1.1
same,Effect,citrus spider mite; [13],90.6b
same,Amount of mites,citrus spider mite; [14],0.7
same,Effect,citrus spider mite; [14],95.5c
same,Amount of mites,citrus spider mite; [15],5.3
same,Effect,citrus spider mite; [15],83.0b
emamectin benzoate,Mortality at different concentrations,[1]; [16],48.27%
same,Mortality at different concentrations,"[1]; 5 mg/L, 24 h, dipping",61.68%
same,Mortality at different concentrations,"[1]; 10 mg/L, 24 h, dipping",67.44%
same,Mortality at different concentrations,"[1]; 20 mg/L, 24 h, dipping",75%
same,Mortality at different concentrations,"[1]; 50 mg/L, 24 h, dipping",86.67%
same,LC50,"[1]; 24 h, dipping",2.8055 µg/mL
ivermectin,Mortality at different concentrations,[1]; [16],18.52%
same,Mortality at different concentrations,"[1]; 5 mg/L, 24 h, dipping",42.55%
same,Mortality at different concentrations,"[1]; 10 mg/L, 24 h, dipping",57.47%
same,Mortality at different concentrations,"[1]; 20 mg/L, 24 h, dipping",58.33%
same,Mortality at different concentrations,"[1]; 50 mg/L, 24 h, dipping",78.94%
same,LC50,"[1]; 24 h, dipping",11.0629 µg/mL
milbemycin,LC50,[1]; in vivo,5.0123 µg/mL
tenvermectin A,LC50,[2],6.592 µg/mL
tenvermectin B,LC50,[2],3.4816 µg/mL
same,relative activity of tenvermectin A/B ratios on Bursaphelenchus xylophilus,[2]; in words,higher than that of tenvermectin A
